# Measurements taken from US20210008075A1, “PEDIATRIC DOSING FOR TREATMENT OF CANCER WITH AN EZH2 INHIBITOR” (Epizyme, Inc., priority 2015, published 2021).
# “Also recorded” adds a separate entry of the source. Where two headings read alike, the source gives them in different places.
# Columns and labels:
# [1] = test system: BT-16 ATRT cell line; test: Surviving fraction after 2Gy radiation; format: cell-based
# Text: FIG. 25A is a pair of graphs showing a surviving fraction of untreated or DZNEP-treated ATRT cells (from a BT-16 ATRT cell line) exposed to 2Gy radiation.
# [2] = test system: UPN737 ATRT cell line; test: Surviving fraction after 2Gy radiation; format: cell-based
# Text: FIG. 25B is a pair of graphs showing a surviving fraction of untreated or DZNEP-treated ATRT cells (from a UPN737 ATRT cell line, “737”) exposed to 2Gy radiation.
# [3] = test system: atypical teratoid rhabdoid tumors (ATRTs); test: ATRT cell self-renewal; format: cell-based; conditions: up to 7 or 10 days post-treatment
# Text: FIG. 24A is a series of photographs showing control or EZH2 inhibitor-treated (DNZep-treated) atypical teratoid rhabdoid tumors (ATRTs) at 1, 3, 5, and 7 days post-treatment.
# FIG. 24D is a series of photographs showing control or EZH2 inhibitor-treated (DNZep-treated) atypical teratoid rhabdoid tumors (ATRTs) at 3, 5, 8 and 10 days post-treatment.
# [4] = test system: G401 SNF mutant cell line; test: Soft agar growth, 7 days; format: cell-based; conditions: after 7 days
# Text: FIGS. 3A-3D are a series of bar graphs showing that G401 SNF mutant cell line is responding to Compound D after 7 days in soft agar compared to wild type cells RD.
# [5] = test system: SCLC line NCI-H841; test: Morphology of SCLC line by microscopy; format: cell-based; conditions: 4.1E-02 uM or 3.3 uM
# [6] = test system: LNCAP prostate cancer cells; test: LNCAP cell growth inhibition in vitro; format: cell-based
# [7] = test system: ATRX mutant SCLC lines NCI-H446, SW1271 and NCI-H841; test: Response of ATRX mutant SCLC lines; format: cell-based
# Text: FIGS. 8A-8C are three graphs establishing that ATRX mutant SCLC lines NCI-H446 (FIG. 8A), SW1271 (FIG. 8B) and NCI-H841 (FIG. 8C) are responding to Compound D.
# [8] = test system: SNF5 mutant cell lines A204, G401 and G402; test: Response of SNF5 mutant versus wild type cell lines; format: cell-based
# [9] = test system: primary medulloblastoma cells; conditions: for primary medulloblastoma cell growth ex vivo: slice culture treated for 4 days
# Experimental: A slice culture of medulloblastoma was freshly isolated from a subject.
# A patient having medulloblastoma underwent surgery to remove a slice of tumor tissue for testing. The medulloblastoma slice was cultured ex vivo on tissue supporting inserts (FIG. 28A). […] Following the treatment period, the cells of the slice culture were treated with BrdU for 4 hours prior to disaggregation and sorting by flow cytometry.
# [10] = test system: SMARCB1 regulated genes; test: Gene expression by qPCR and cell morphology; format: cell-based; conditions: 1 μM; 2, 4 and 7 days (G401, RD); 14 days (G402)
# Experimental: (FIG. 14A) Basal expression of SMARCB1 regulated genes in G401 SMARCB1-deleted cells, relative to RD control cells (measured by qPCR, n=2). (FIGS. 14B-14L) G401 and RD cells were incubated with either DMSO or 1 μM Compound A for 2, 4 and 7 days. Gene expression was determined by qPCR (n=2) and is expressed relative to the DMSO control of each time point. FIGS. 14B-14K correspond to genes GLI1, PTCh1, DOCK4, CD133, PTPRK, BIN1, CDKN1A, CDKN2A, EZH2, and MYC, respectively. (FIG. 14L) G402 cells were incubated with either DMSO (left panel) or 1 μM Compound A (right panel) for 14 days. Cells were split and re-plated to the original seeding density on day 7.
# [11] = PBPK model (Gastroplus) prediction of adult steady-state PK; conditions: adults, 100-1600 mg BID
# [12] = test system: ATRT; test: ATRT in vivo, percent survival
# [13] = test system: G401 SNF5 mutant cell line; test: CellTiter-Glo Luminescent Cell Viability Assay after 7 day pretreatment; format: cell-based; conditions: pretreated for 7 days, replated on day 0
# Experimental: FIGS. 4A-4D are four graphs showing that G401 SNF5 mutant cell line is sensitive to Compound A in vitro. Wild type cell line SJCRH30 (FIG. 4A) and RD (FIG. 4C) and SNF5 mutant cell line G401 (FIG. 4B) and A204 (FIG. 4D) were pretreated for 7 days with indicated concentrations of Compound A and replated on day 0. Cell viability was determined by CellTiter-Glo® Luminescent Cell Viability Assay.
# [14] = test system: Medulloblastoma cells; test: Medulloblastoma cell growth, total cells per milliliter counted; format: cell-based; conditions: versus DMSO control, counted each day for 10 days; tazemetostat 0.5, 2 and 6 μM
# Text: The total cells per milliliter of culture were counted each day for 10 days.
# [15] = test system: G401 xenografts (malignant rhabdoid tumor model); test: G401 xenograft tumor regression; format: in vivo, SCID mice; conditions: twice daily (BID) administration at the indicated doses; listed as Compound A
# Experimental: Data represent the mean values±SEM (n=8). Compound administration was stopped on day 28. (FIG. 5C) EZH2 target inhibition in G401 xenograft tumor tissue collected from a parallel cohort of mice on day 21. […] Horizontal lines represent group mean values. BLLQ=below lower limit of quantification. (FIG. 5D, FIG. 5E) Immunohistochemical staining of tumor histone methylation of tumor samples from the vehicle treated (FIG. 5D) and Compound A treated (FIG. 5E) (at 125 mg/kg) mice.
# Data are presented as mean values±SEM (n=16 until day 21, n=8 from day 22 to 60). […] (FIG. 15C) Tumor weights of 8 mice euthanized on day 21. ****p<0.0001, Fisher's exact test. (FIG. 15D) Plasma was collected 5 min before and 3 h after dosing of Compound A on day 21, and compound levels were measured by LC-MS/MS. Animals were euthanized, and tumors were collected 3 h after dosing on day 21. Tumor homogenates were generated and subjected to LC-MS/MS analysis to determine Compound A concentrations. Note that tumor compound levels could not be determined from all animals especially in the higher dose groups because the xenografts were too small on day 21. Dots represent values for the individual animals; horizontal lines represent group mean values.
# Compound administration was stopped on day 28 and tumors were allowed to re-grow until they reached 2000 mm^3 (data shown as mean values±SEM, n=8). […]
# [16] = test system: SMARCB1-deleted MRT cells (G401); test: Cell cycle analysis (flow cytometry) and apoptosis (TUNEL assay); format: cell-based; conditions: 1 μM, up to 14 days
# Experimental: Cell cycle analysis (by flow cytometry) and determination of apoptosis (by TUNEL assay) in RD (FIG. 13A) or G401 cells (FIG. 13B) during incubation with either vehicle or 1 μM Compound A for up to 14 days. […] Data are represented as mean values±SEM (n=2). The DMSO control values shown are the average±SEM from each time point. Cells were split and re-plated on days 4, 7 and 11 at the original seeding density.
# [17] = Phase 1 clinical trial, observed steady-state PK in adults; conditions: for CL/F Observed: adults, steady-state; for AUC(0-t) / Cmax: human, in vivo, po
# [18] = Oral bioavailability (general statement); conditions: in vivo
# [19] = test system: cellular H3K27Me3; test: Cellular histone methylation in G401 and RD cells; format: cell-based
# Experimental: FIGS. 10A-10C are a series of graphs showing effects of Compound A on cellular global histone methylation and cell viability.
# (FIG. 12A) Cell lysates were analyzed by immunoblot with antibodies specific to SMARCB1, EZH2 and Actin (loading control). […] Cells were incubated with Compound A for 4 days, and acid-extracted histones were analyzed by immunoblot.
# [20] = 500 nM or 2 μM for 4 days, versus untreated control
structure (smiles),measurement,setting,value
Nc1nccc2c1ncn2C1C=C(CO)C(O)C1O (centres unmarked) [DNZep],radio-sensitization (surviving fraction),[1],radio-sensitizes ATRT
same,radio-sensitization (surviving fraction),[2],radio-sensitizes ATRT
same,ATRT cell self-renewal,[3],suppresses ATRT cell self-renewal
CCN(c1cc(-c2ccc(CN3CCOCC3)cc2)cc(C(=O)NCc2c(C)cc(C)[nH]c2=O)c1C)[C@H]1CC[C@H](N(C)C)CC1 [Compound D],response in soft agar compared to wild type cells RD,[4],responding
same,cell morphology,[5],changes morphology
same,cell growth inhibition,[6],dose-dependent cell growth inhibition
same,response of ATRX mutant SCLC lines,[7],responding
same,response of SNF5 mutant cell lines compared to wild type cell lines RD and SJCRH30,[8],selectively respond
CCN(c1cc(-c2ccc(CN3CCOCC3)cc2)cc(C(=O)NCc2c(C)cc(C)[nH]c2=O)c1C)C1CCOCC1 [tazemetostat],proportion of cells in G0/G1 stage,[9]; [20],increased proportion
same,proportion of cells in G2/M stage,[9]; [20],decreased proportion
same,primary medulloblastoma cell growth ex vivo,[9],inhibits proliferation/growth of medulloblastoma cells
same,primary medulloblastoma cell growth ex vivo,[9]; listed as Tazemetostat,decreases primary medulloblastoma cell growth ex vivo
same,expression of SMARCB1 regulated genes and cell morphology,[10],induces changes in expression of SMARCB1 regulated genes and cell morphology
same,deviation of predicted mean steady-state AUC0-t from observed,[11],≤ 30%
same,deviation of predicted oral clearance (CL/F) from observed,[11],≤ 30%
same,ATRT in vivo (percent survival versus vehicle),[12],decreases ATRT in vivo
same,sensitivity of cell viability in vitro,[13],sensitive
same,medulloblastoma cell growth (total cells per milliliter),[14],significant decrease; also recorded: decrease medulloblastoma cell growth
same,tumor response in G401 xenografts,[15],durable regressions; also recorded: Tumor regressions; also recorded: eradicates SMARCB1-deleted MRT xenografts
same,G1 arrest,[16],G1 arrest was observed as of day 7
same,apoptosis,[16]; TUNEL,apoptosis was induced as of day 11
same,CL/F Observed,[17]; 100 mg BID p.o. (n = 6),309 L/h
same,CL/F Observed,[17]; 200 mg BID p.o. (n = 3),198 L/h
same,CL/F Observed,[17]; 400 mg BID p.o. (n = 3),264 L/h
same,CL/F Observed,[17]; 800 mg BID p.o. (n = 6),152 L/h
same,CL/F Observed,[17]; 1600 mg BID p.o. (n = 6),180 L/h
same,AUC(0-t),[17]; 100 mg,348 ng·h/mL
same,Cmax,[17]; 100 mg,99 ng/mL
same,AUC(0-t),[17]; 200 mg,1010 ng·h/mL
same,Cmax,[17]; 200 mg,237 ng/mL
same,AUC(0-t),[17]; 400 mg,1510 ng·h/mL
same,Cmax,[17]; 400 mg,313 ng/mL
same,AUC(0-t),[17]; 800 mg,4630 ng·h/mL
same,Cmax,[17]; 800 mg,818 ng/mL
same,AUC(0-t),[17]; 1600 mg,7880 ng·h/mL
same,Cmax,[17]; 1600 mg,1480 ng/mL
same,oral bioavailability,[18],orally bioavailable
same,cellular H3K27Me3 levels,[19],Concentration-dependent inhibition
same,specificity for inhibition of cellular histone methylation,"[19]; 4 days, immunoblot",Selective inhibition of cellular H3K27 methylation
"CC[C@H](C)n1cc(C)c2c(C(=O)NCc3c(C)cc(C)[nH]c3=O)cc(-c3ccc(N4CCNCC4)nc3)cc21 [GSK-126, reference compound]",medulloblastoma cell growth (total cells per milliliter),[14],decrease medulloblastoma cell growth
"CCCc1cc(C)[nH]c(=O)c1CNC(=O)c1cc(-c2ccc(N3CCN(C(C)C)CC3)nc2)cc2c1cnn2C(C)C [UNC 1999, reference compound]",medulloblastoma cell growth (total cells per milliliter),[14],decrease medulloblastoma cell growth
